Experimental data reported in patent US20230391760A1, “HETEROCYCLIC GLP-1 AGONISTS” (Gasherbrum Bio, Inc., priority 2020, published 2023).

Target: GLP-1 Receptor (Homo sapiens, UniProt P43220)
Test: GLP-1R agonist cAMP stimulation assay (HEK293/GLP1R/CRE-LUC cells, cAMP dynamic 2 Kit)
Assay type: cell-based
Details: HEK293/CRE-Luc cell line stably expressing the GLP-1 Receptor, 30 min at 37° C.
Outline: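 cAMP measured by HTRF competition (d2-labelled cAMP with cryptate antibody, 1 h, room temperature, protected from light). Before that, GLP1R/CRE-Luc HEK293 cells (1000/well) were exposed for 30 min at 37 °C to half-log compound dilutions in DPBS containing IBMX 0.5 mM and BSA 0.1%.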

Chain of GLP-1 Receptor (P43220 24-463, species assumed): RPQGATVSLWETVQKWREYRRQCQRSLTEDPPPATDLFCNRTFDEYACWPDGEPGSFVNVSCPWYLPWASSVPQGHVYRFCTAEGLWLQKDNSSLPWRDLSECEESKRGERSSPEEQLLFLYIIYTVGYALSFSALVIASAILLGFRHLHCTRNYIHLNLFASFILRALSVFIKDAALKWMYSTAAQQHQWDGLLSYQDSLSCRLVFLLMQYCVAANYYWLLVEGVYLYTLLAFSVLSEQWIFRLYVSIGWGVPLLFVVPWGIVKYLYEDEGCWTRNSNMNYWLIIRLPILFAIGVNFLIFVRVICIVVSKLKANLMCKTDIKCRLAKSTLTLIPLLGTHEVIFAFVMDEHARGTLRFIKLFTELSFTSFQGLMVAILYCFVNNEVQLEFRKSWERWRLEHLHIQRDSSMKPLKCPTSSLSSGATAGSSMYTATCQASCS

| Structure (SMILES) | EC50 [nM] |
| --- | --- |
| CO[C@H](C)Cn1c(CN2CCC(c3cccc4c3O[C@@](C)(c3ccc(Cl)cc3F)O4)CC2)nc2cc(-c3noc(=O)[nH]3)cnc21 [Compound 397a, 3-[2-({4-[(2S)-2-(4-chloro-2-fluorophenyl)-2-methyl-2H-1,3-benzodioxol-4-yl]piperidin-1-yl}methyl)-3-[(2R)-2-methoxypropyl]-3H-imidazo[4,5-b]pyridin-6-yl]-4,5-dihydro-1,2,4-oxadiazol-5-one] | 1.3 |
| C[C@]1(c2ccc(Cl)cc2F)Oc2cccc(C3CCN(Cc4nc5cc(-c6noc(=O)[nH]6)cnc5n4C[C@@H]4CCOC4)CC3)c2O1 [Compound 398a, 3-[2-({4-[(2S)-2-(4-chloro-2-fluorophenyl)-2-methyl-2H-1,3-benzodioxol-4-yl]piperidin-1-yl}methyl)-3-{[(3S)-oxolan-3-yl]methyl}-3H-imidazo[4,5-b]pyridin-6-yl]-4,5-dihydro-1,2,4-oxadiazol-5-one] | 4.3 |
| CC1(c2ccc(Cl)cc2F)Oc2cccc(C3CCN(Cc4nc5cc(-c6noc(=O)[nH]6)cnc5n4C[C@H]4CCCO4)CC3)c2O1 (stereo partly drawn) [Compound 399a, 3-[2-({4-[2-(4-chloro-2-fluorophenyl)-2-methyl-2H-1,3-benzodioxol-4-yl]piperidin-1-yl}methyl)-3-{[(2R)-oxolan-2-yl]methyl}-3H-imidazo[4,5-b]pyridin-6-yl]-4,5-dihydro-1,2,4-oxadiazol-5-one] | 17 |
| CC1(c2ccc(Cl)cc2F)Oc2cccc(C3CCN(Cc4nc5cc(-c6noc(=O)[nH]6)cnc5n4C[C@H]4CCOC4)CC3)c2O1 (stereo partly drawn) [Compound 400a, 3-[2-({4-[2-(4-chloro-2-fluorophenyl)-2-methyl-2H-1,3-benzodioxol-4-yl]piperidin-1-yl}methyl)-3-{[(3R)-oxolan-3-yl]methyl}-3H-imidazo[4,5-b]pyridin-6-yl]-4,5-dihydro-1,2,4-oxadiazol-5-one] | 3.7 |
| CC1(c2ccc(Cl)cc2F)Oc2cccc(C3CCN(Cc4nc5cc(-c6nnc(C(F)(F)F)[nH]6)cnc5n4C[C@H]4CCOC4)CC3)c2O1 (stereo partly drawn) [Compound 401a, 4-[2-(4-chloro-2-fluorophenyl)-2-methyl-2H-1,3-benzodioxol-4-yl]-1-[(3-{[(3R)-oxolan-3-yl]methyl}-6-[5-(trifluoromethyl)-4H-1,2,4-triazol-3-yl]-3H-imidazo[4,5-b]pyridin-2-yl)methyl]piperidine] | 0.6 |
| COCCn1c(CN2CCC(c3cccc4c3OC(C)(c3ccc(Cl)cc3F)O4)CC2)nc2cc(-c3nnc(C(F)(F)F)[nH]3)cnc21 (stereo not shown) [Compound 402, 4-[2-(4-chloro-2-fluorophenyl)-2-methyl-2H-1,3-benzodioxol-4-yl]-1-{[3-(2-methoxyethyl)-6-[5-(trifluoromethyl)-4H-1,2,4-triazol-3-yl]-3H-imidazo[4,5-b]pyridin-2-yl]methyl}piperidine] | 0.75 |
| CC1(c2ccccc2)Oc2cccc(C3CCN(Cc4nc5cc(-c6nnc(C(F)(F)F)[nH]6)ccc5n4C[C@@H]4CCO4)CC3)c2O1 (stereo partly drawn) [Compound 405a, 2-{[4-(2-methyl-2-phenyl-2H-1,3-benzodioxol-4-yl)piperidin-1-yl]methyl}-1-{[(2S)-oxetan-2-yl]methyl}-5-[5-(trifluoromethyl)-4H-1,2,4-triazol-3-yl]-1H-1,3-benzodiazole] | 0.53 |
| O=c1[nH]c(-c2cnc3c(c2)nc(CN2CCC(c4cccc5c4OC[C@@H](c4ccc(Cl)cc4)O5)CC2)n3C[C@@H]2CCO2)no1 [Compound 407a, 3-[2-({4-[(2R)-2-(4-chlorophenyl)-2,3-dihydro-1,4-benzodioxin-5-yl]piperidin-1-yl}methyl)-3-{[(2S)-oxetan-2-yl]methyl}-3H-imidazo[4,5-b]pyridin-6-yl]-4,5-dihydro-1,2,4-oxadiazol-5-one] | 4.5 |
| FC(F)(F)c1nnc(-c2cnc3c(c2)nc(CN2CCC(c4cccc5c4OC[C@@H](c4ccc(Cl)cc4)O5)CC2)n3C[C@@H]2CCO2)[nH]1 [Compound 408a, 4-[(2R)-2-(4-chlorophenyl)-2,3-dihydro-1,4-benzodioxin-5-yl]-1-[(3-{[(2S)-oxetan-2-yl]methyl}-6-[5-(trifluoromethyl)-4H-1,2,4-triazol-3-yl]-3H-imidazo[4,5-b]pyridin-2-yl)methyl]piperidine] | 0.28 |
| CC1(c2ccc(Cl)cc2F)Oc2cccc(C3CCN(Cc4nc5cc(-c6nc(Br)ns6)ccc5n4C[C@@H]4CCO4)CC3)c2O1 (stereo partly drawn) [Compound 409a, 5-(3-bromo-1,2,4-thiadiazol-5-yl)-2-({4-[2-(4-chloro-2-fluorophenyl)-2-methyl-2H-1,3-benzodioxol-4-yl]piperidin-1-yl}methyl)-1-{[(2S)-oxetan-2-yl]methyl}-1H-1,3-benzodiazole] | 6.5 |

Molecules with a lower EC50, results first:

| EC50 [nM] | Structure (SMILES) |
| --- | --- |
| 0.02 | CC1(c2ccc(C#N)cc2F)Oc2cccc(C3CCN(Cc4nc5cc(-c6nnc(C(F)(F)F)[nH]6)cnc5n4C[C@@H]4CCO4)CC3)c2O1 (stereo partly drawn) [Compound 403a, 3-fluoro-4-(2-methyl-4-{1-[(3-{[(2S)-oxetan-2-yl]methyl}-6-[5-(trifluoromethyl)-4H-1,2,4-triazol-3-yl]-3H-imidazo[4,5-b]pyridin-2-yl)methyl]piperidin-4-yl}-2H-1,3-benzodioxol-2-yl)benzonitrile] |
| 0.045 | CC1(c2ccc(F)cc2Cl)Oc2cccc(C3CCN(Cc4nc5cc(-c6nnc(C(F)(F)F)[nH]6)ccc5n4C[C@@H]4CCO4)CC3)c2O1 (stereo partly drawn) [Compound 404a, 2-({4-[2-(2-chloro-4-fluorophenyl)-2-methyl-2H-1,3-benzodioxol-4-yl]piperidin-1-yl}methyl)-1-{[(2S)-oxetan-2-yl]methyl}-5-[5-(trifluoromethyl)-4H-1,2,4-triazol-3-yl]-1H-1,3-benzodiazole] |
| 0.018 | Cc1nnc(-c2ccc3c(c2)nc(CN2CCC(c4cccc5c4O[C@@](C)(c4ccc(Cl)cc4F)O5)CC2)n3C[C@@H]2CCO2)[nH]1 [Compound 406a, 2-({4-[(2S)-2-(4-chloro-2-fluorophenyl)-2-methyl-2H-1,3-benzodioxol-4-yl]piperidin-1-yl}methyl)-5-(5-methyl-4H-1,2,4-triazol-3-yl)-1-{[(2S)-oxetan-2-yl]methyl}-1H-1,3-benzodiazole] |
| 0.029 | Cc1nnc(-c2ccc3c(c2)nc(CN2CCC(c4cccc5c4O[C@@](C)(c4ccc(C#N)cc4F)O5)CC2)n3C[C@@H]2CCO2)[nH]1 [Compound 410a, 3-fluoro-4-[(2S)-2-methyl-4-(1-{[5-(5-methyl-4H-1,2,4-triazol-3-yl)-1-{[(2S)-oxetan-2-yl]methyl}-1H-1,3-benzodiazol-2-yl]methyl}piperidin-4-yl)-2H-1,3-benzodioxol-2-yl]benzonitrile] |
| 0.082 | Cc1nnc(-c2ccc3c(c2)nc(CN2CCC(c4cccc5c4O[C@@](C)(c4ccc(C(N)=O)cc4F)O5)CC2)n3C[C@@H]2CCO2)[nH]1 [Compound 410b, 3-fluoro-4-[(2S)-2-methyl-4-(1-{[5-(5-methyl-4H-1,2,4-triazol-3-yl)-1-{[(2S)-oxetan-2-yl]methyl}-1H-1,3-benzodiazol-2-yl]methyl}piperidin-4-yl)-2H-1,3-benzodioxol-2-yl]benzamide] |
| 0.033 | C[C@]1(c2ccc(Cl)cc2F)Oc2cccc(C3CCN(Cc4nc5cc(-c6nnc(C(F)(F)F)[nH]6)ccc5n4CC4(C#N)CC4)CC3)c2O1 [Compound 412a, 1-{[2-({4-[(2S)-2-(4-chloro-2-fluorophenyl)-2-methyl-2H-1,3-benzodioxol-4-yl]piperidin-1-yl}methyl)-5-[5-(trifluoromethyl)-4H-1,2,4-triazol-3-yl]-1H-1,3-benzodiazol-1-yl]methyl}cyclopropane-1-carbonitrile] |
